Measurements as given in patent US12029804B2, “Peptide for promoting mucous membrane permeation and composition containing same” (SOONCHUNHYANG UNIVERSITY INDUSTRY ACADEMY COOPERATION …, priority 2018, dated 2024).
Like-named read-outs stand apart in the source and are kept apart here. Bridge positions count the residues as written; N and C are the ends. Square brackets hold non-standard residues; d marks the D form. Ends that are not written are not given here. Peptide text beside a SMILES is read from it. I, II: the chains in the order shown. ξ: configuration not given here. Dap(N3) = [N-]=[N+]=NC[C@H](N)C(=O)O; ξDap(N3) = [N-]=[N+]=NCC(N)C(=O)O

Key:
[1] = in vivo; conditions: rat, in vivo
Protocol: (§1) For a control group, a 0.5% (w/v) levan aqueous solution including doxorubicin without the peptide was prepared.
(§2) At this time, the dosage of peptide-containing drug was 10 mg/kg for each group.
(§3) Before drug administration, the rat was anesthetized and cannulated into the femoral veno-artery using PE-50. An abdominal cavity was opened and the test substance was administered to an upper duodenum of the small intestine.
(§4) After administration of the solution through a cannula inserted into the femoral vein of the rat, each 250 μl of blood was collected at 5, 10, 20, 40, 60, 120, 180 and 240 minutes and saline was supplemented via the femoral artery. The collected blood was centrifuged at 13,000 rpm for 10 minutes so as to obtain 100 μl of plasma. After adding 200 μl of methanol to the obtained plasma, the resulting solution was subjected into vortex, and then centrifuged again at 13,000 rpm for 10 minutes to carry out deproteinization, and the supernatant was quantitatively analyzed by HPLC-Fluorescence.

[2] = system: intestinal mucous membrane; assay: Intestinal (duodenum) administration of doxorubicin with peptide or peptide dimer in rats, doxorubicin blood concentration; conditions: rat, duodenum, peptide 10 mg/kg vs doxorubicin only
Protocol: as §1, §2, §3, §4

[3] = system: nasal mucous membrane; conditions: rat, intranasal; for AUC0-360min of fexofenadine, times higher than the group dosed with fexofenadine alone: fexofenadine with peptide (text on Table 1)
Protocol: Male Sprague-Dawley (SD) rats (280-300 g) were acclimated for a minimum of two days in individual cages in a laboratory animal room. At this time, the rats were allowed to freely consume food and water before an experiment, provided with light for 12 hours, and maintained in the dark state for 12 hours. One day before the experiment, the animals were provided only with water and fasted.
The rats prepared in above 1 were divided into each group of three to five rats so as to prepare a total of nine groups, after which each of the test substances prepared was intranasally administered into the group. At this time, the dosage of each drug was 1.0, 2.5 or 5.0 mg/kg per rat.
Before intranasal administration, the rat was anesthetized and cannulated into the femoral veno-artery using PE-50. The solution was carefully administered to the nostril of the rat using a micropipette (Eppendof) so as not to affect the nasal mucous membrane. At this time, the rat's body was laid on the floor and the head was placed while leaning against the wall.
The collected blood was centrifuged at 13,000 rpm for 10 minutes so as to obtain 100 μl of plasma. After adding 200 μl of methanol to the obtained plasma, the resulting solution was subjected into vortex, and then centrifuged again at 13,000 rpm for 10 minutes to carry out deproteinization, and the supernatant was quantitatively analyzed by HPLC-MS.

[4] = system: Caco-2 monolayer; assay: Drug permeability through the Caco-2 monolayer with peptide; conditions: peptide 5 mM, all drugs of Table 3
[5] = system: intestinal mucous membrane; conditions: rat, duodenum
Protocol: as §3
as §4, with “HPLC-MS.” for “HPLC-Fluorescence.”

[6] = rat, plasma, 10 mg/kg
Protocol: as §3
as §4, with “HPLC-MS.” for “HPLC-Fluorescence.”

[7] = in vitro; conditions: human, Caco-2
[8] = fexofenadine with peptide vs fexofenadine alone

COc1cccc2c1C(=O)c1c(O)c3c(c(O)c1C2=O)C[C@@](O)(C(=O)CO)C[C@@H]3O[C@H]1C[C@H](N)[C@H](O)[C@H](C)O1 [Doxorubicin, doxorubicin, reference compound]
AUC(0-t) ([1]; male, Sprague-Dawley): 76.2 ng·h/mL

CC[C@H](C)[C@H](NC(=O)C(CN=[N+]=[N-])NC(=O)[C@H](N)Cc1ccccc1)C(=O)NCC(=O)N[C@@H](CCCNC(=N)N)C(=O)N[C@@H](CC(C)C)C(N)=O (stereo partly drawn) [Example 1, FX1IGRL-NH2(X1=Dap(N3))] (H-[dF][ξDap(N3)]IGRL-NH2)
Doxorubicin AUC0-240 min, fold of control [2]: (1.81-fold)
Fexofenadine AUC0-240 min, fold of control group [3, 8]: (1.92-fold)
Fexofenadine Cmax, fold of control group [3, 8]: 3 fold
Fexofenadine Tmax, fold of control group [3, 8]: (0.57-fold)
Fexofenadine Cmax, fold of control group ([3]; fexofenadine with peptide vs fexofenadine alone, listed as H-FX1IGRL-NH2): (2.90-fold)
Fexofenadine AUC0-240 min, fold of control group ([3]; peptide 1 mg/kg): (1.64-fold)
Fexofenadine Cmax, fold of control group ([3]; peptide 1 mg/kg): 2 fold
Fexofenadine Tmax, fold of control group ([3]; peptide 1 mg/kg): (0.57-fold)
Fexofenadine Cmax, fold of control group ([3]; peptide 1 mg/kg, listed as H-FX1IGRL-NH2): (2.01-fold)
Fexofenadine AUC0-240 min, fold of control group ([3]; peptide 5 mg/kg): (2.48-fold)
Fexofenadine Cmax, fold of control group ([3]; peptide 5 mg/kg): 4 fold
Fexofenadine Tmax, fold of control group ([3]; peptide 5 mg/kg): (0.43-fold)
Fexofenadine Cmax, fold of control group ([3]; peptide 5 mg/kg, listed as H-FX1IGRL-NH2): (4.05-fold)
Fexofenadine Tmax, fold of control group ([3]; peptide […]): (0.57-fold)

CC[C@@H](C)[C@@H](NC(=O)[C@@H](CSSC[C@H](NC(=O)[C@H](N)Cc1ccccc1)C(=O)N[C@H](C(=O)NCC(=O)N[C@@H](CCCNC(=N)N)C(=O)N[C@@H](CC(C)C)C(N)=O)[C@@H](C)CC)NC(=O)[C@@H](N)Cc1ccccc1)C(=O)NCC(=O)N[C@H](CCCNC(=N)N)C(=O)N[C@H](CC(C)C)C(N)=O [Example 3, FCIGRL-NH2 Dimer] (I: H-F[dC][dI]G[dR][dL]-NH2 / II: H-[dF]CIGRL-NH2; disulfide I:2-II:2)
Doxorubicin AUC0-240 min, fold of control [2]: (2.29-fold)
AUC(0-t) ([1]; 10 mg/kg): 174 ng·h/mL
increase rate of Papp (cm/sec) of each drug, effect of promoting mucous membrane permeation [4]: at least seven times higher
AUC0-360min of fexofenadine, times higher than the group dosed with fexofenadine alone [3]: 5.3 times
Fexofenadine AUC0-240 min, fold of control group [3, 8]: (5.30-fold)
Fexofenadine Cmax, fold of control group [3, 8]: 9.7 fold
Fexofenadine Tmax, fold of control group [3, 8]: (0.38-fold)
Fexofenadine Cmax, fold of control group ([3]; fexofenadine with peptide vs fexofenadine alone, listed as H-FCIGRL-NH2 (Dimer)): (9.76-fold)
Exenadine AUC0-240 min, fold of control ([5]; 5 mg/kg of peptide dimer vs exenadine alone, 5 mg/kg): about 2.17 fold
Exenadine AUC0-240 min, fold of control ([5]; 5 mg/kg of peptide dimer vs exenadine alone, listed as H-FCIGRL-NH2 (Dimer), 5 mg/kg): 3.88(2.17-fold)
Exenadine AUC0-240 min, fold of control ([5]; 10 mg/kg of peptide dimer vs exenadine alone, 10 mg/kg): ~4.57 fold
Exenadine AUC0-240 min, fold of control ([5]; 10 mg/kg of peptide dimer vs exenadine alone, listed as H-FCIGRL-NH2 (Dimer), 10 mg/kg): 6.32 (4.57-fold)
AUC(0-t) [6]: 343 ng·h/mL

CC[C@H](C)[C@H](NC(=O)[C@H](CSSC[C@H](NC(=O)[C@@H](N)Cc1ccccc1)C(=O)N[C@H](C(=O)NCC(=O)N[C@@H](CCCNC(=N)N)C(=O)N[C@@H](CC(C)C)C(=O)O)[C@@H](C)CC)NC(=O)[C@@H](N)Cc1ccccc1)C(=O)NCC(=O)N[C@@H](CCCNC(=N)N)C(=O)N[C@@H](CC(C)C)C(=O)O [Example 4, FCIGRL-OH Dimer] (I: H-FCIGRL-OH / II: H-FCIGRL-OH; disulfide I:2-II:2)
AUC0-360min of fexofenadine, times higher than the group dosed with fexofenadine alone [3]: 3.6 times
Fexofenadine AUC0-240 min, fold of control group [3, 8]: (3.64-fold)
Fexofenadine Cmax, fold of control group [3, 8]: 6 fold
Fexofenadine Tmax, fold of control group [3, 8]: (0.41-fold)
Fexofenadine Cmax, fold of control group ([3]; fexofenadine with peptide vs fexofenadine alone, listed as H-FCIGRL-OH (Dimer)): (6.06-fold)

CC[C@H](C)[C@H](NC(=O)[C@H](CSSC[C@H](NC(=O)[C@H](Cc1ccccc1)NC(=O)[C@@H](N)CN=[N+]=[N-])C(=O)N[C@H](C(=O)NCC(=O)N[C@@H](CCCNC(=N)N)C(=O)N[C@@H](CC(C)C)C(N)=O)[C@@H](C)CC)NC(=O)[C@H](Cc1ccccc1)NC(=O)[C@@H](N)CN=[N+]=[N-])C(=O)NCC(=O)N[C@@H](CCCNC(=N)N)C(=O)N[C@@H](CC(C)C)C(N)=O [Example 5, X1FCIGRL-NH2 Dimer] (I: H-[Dap(N3)]FCIGRL-NH2 / II: H-[Dap(N3)]FCIGRL-NH2; disulfide I:3-II:3)
Doxorubicin AUC0-240 min, fold of control [2]: (1.77-fold)

COCCc1ccc(OCC(O)CNC(C)C)cc1 (stereo not drawn) [metoprolol]
Papp [7]: 38.9 ×10⁻⁶ cm/s

FCIGRL [Preparation Example 2, FCIGRL, reference compound]
Fexofenadine AUC0-240 min, fold of control group [3, 8]: (1.53-fold)
Fexofenadine Cmax, fold of control group [3, 8]: (1.16-fold)
Fexofenadine Tmax, fold of control group [3, 8]: (1.52-fold)

FCIGRL-NH2 [Preparation Example 1, FCIGRL-NH2, reference compound]
Doxorubicin AUC0-240 min, fold of control [2]: (1.49-fold)
Fexofenadine AUC0-240 min, fold of control group [3, 8]: (1.70-fold)
Fexofenadine Cmax, fold of control group [3, 8]: (1.45-fold)
Fexofenadine Tmax, fold of control group [3, 8]: (1.14-fold)

FKIGRL [Preparation Example 4, FKIGRL, reference compound]
Fexofenadine AUC0-240 min, fold of control group [3, 8]: (1.09-fold)
Fexofenadine Cmax, fold of control group [3, 8]: (0.71-fold)
Fexofenadine Tmax, fold of control group [3, 8]: (1.14-fold)

FRIGRL [Preparation Example 3, FRIGRL, reference compound]
Fexofenadine AUC0-240 min, fold of control group [3, 8]: (1.39-fold)
Fexofenadine Cmax, fold of control group [3, 8]: (0.73-fold)
Fexofenadine Tmax, fold of control group [3, 8]: (1.71-fold)
